Legend:
SYF and SYF+Src cells = assay: Protein tyrosine phosphorylation in SYF and SYF+Src cells; format: cell-based, mouse; details: SYF+Src cells
Method: FIG. 9B. Both SYF and SYF+Src cells were treated with 100 μM ouabain for 5 min and analyzed as in A. Representative Western blots of three experiments are shown in both A and B.
(§1) Cells were lysed in RIPA buffer containing 1% Nonidet P40, 0.25% sodium deoxycholate, 150 mM NaCl, 1 mM EDTA, 1 mM phenylmethylsulfonyl fluoride, 1 mM sodium orthovanadate, 1 mM NaF, 10 μg/ml aprotinin, 10 μg/mlleupeptin, and 50 mM Tris-HCl (pH 7.4). Cell lysates were cleared by centrifugation at 16,000×g for […], and the supernatants (1 mg) were either immunoprecipitated with anti-α1 antibody or incubated with different GST-fusion proteins. The complexes were then pulled down by either protein G agarose or glutathione beads (Ma et al., 2000; Haas et al., 2002) and analyzed by Western blot.

PY-17 cells = assay: FAK Tyr925 phosphorylation in α1 knockdown cells; format: cell-based, pig; details: 1 μM PP2 for 0.5 and 2 h
Method: FIG. 17D. P-11 and PY-17 cells were treated with 1 μM PP2 for 0.5 and 2 h. FAK and Src activation was measured by using the specific antibodies. A representative Western blot is shown, and the same experiments were repeated three times.
(§2) Cells were washed with PBS, solubilized in modified ice-cold radioimmune precipitation assay buffer, and subjected to immunoprecipitation or Western blot analysis. Protein signal was detected using the enhanced chemiluminescence kit and quantified using a Bio-Rad GS-670 imaging densitometer.

LLC-PK1 cells [1] = assay: Recruitment of Src to the Na+/K+-ATPase signaling complex (co-immunoprecipitation); format: cell-based, pig; details: 1 μM pretreatment 15 min, then 1 μM ouabain 5 min
Method: FIG. 9C Inhibition of Src blocks ouabain-induced recruitment of Src to the Na+/K+-ATPase signaling complex. LLC-PK1 cells were pretreated with 1 μM PP2 or PP3 for 15 min and then exposed to 1 μM ouabain for 5 min. Cell lysates were immunoprecipitated and analyzed. Values are mean±SE of at least four independent experiments. * p<0.05.
as §1

LLC-PK1 cells [2] = assay: Sensitivity of LLC-PK1-derived cells to selection agents; format: cell-based, pig
Method: Another batch of cells was co-transfected with pEYFP together with the pSuppressor-A4 siRNA and pBade-puro so that the co-expressed EYFP could be used as a marker to pick clones. Empty vector (pSuppressor) or A1 siRNA-transfected cells were co-selected and used as a control. The cells were selected with puromycin (1 μg/ml) 24 h posttransfection. Puromycin-resistant colonies were cloned and expanded. To rescue the Na+/K+-ATPase knockdown cells, cells were transfected with the pRc/CMV-α1AACm1. Selection was initiated with 3 μM ouabain because untransfected cells were very sensitive to ouabain. After about 1 week, ouabain-resistant colonies were isolated and expanded into stable cell lines in the absence of ouabain. G418 was not used because these cells are resistant to it, requiring more than 3 mg/ml to kill the untransfected cells.

[3] = biological target: T1, Na+/K+-ATPase/Src complex (Sus scrofa, UniProt P05024); assay: Src pY418 phosphorylation of the Na+/K+-ATPase/Src complex (Western blot); format: biochemical
T1 construct: Na+/K+-ATPase was purified from pig kidney outer medulla using the Jorgensen method; tissue Upstate Biotechnology (Src only); host or cells: pig kidney outer medulla (Na+/K+-ATPase)
Method: (§3) The Src kinase activity was assayed using a commercial kit (Haas et al., 2000). To determine how Na+/K+-ATPase affects Src kinase activity, the purified Src (4.5 U) was incubated with 5 μg of the purified Na+/K+-ATPase in the Src assay buffer for 30 min at room temperature. Afterward, both control Src or the Na+/K+-ATPase-bound Src were exposed to 10 μM ouabain and Src kinase activity was determined. In other experiments, the Src pY418 was measured by anti-pY418 antibody to indicate Src activation (Ma et al., 2000). To do so, the purified Src (4.5 U) was incubated with different amounts of the purified Na+/K+-ATPase or GST-Na+/K+ATPase constructs in phosphate-buffered saline (PBS) for 30 min at 37° C. Afterward, 2 mM ATP/Mg2+ was added. The reaction continued for 5 min at 37° C. and was stopped by addition of SDS sample buffer.
(§4) The purified Na+/K+-ATPase was solubilized in 1% Triton X-100 PBS and centrifuged at 100,000×g for 30 min. The supernatant was collected for the binding assay. GST-fusion proteins (5 μg) were conjugated on glutathione beads and incubated with the solubilized Na+/K+-ATPase in 500 μl PBS in the presence of 0.5% Triton X-100 at room temperature for 30 min. The beads were washed with the same buffer for four times. The bound Na+/K+ATPase was resolved on 10% SDS-PAGE and detected by Western blot. Reciprocal binding assay using GST-Na+/K+-ATPase constructs (5 μg) and purified Src lacking of first 85 amino acids (200 ng) or His-tagged Src constructs (100 ng) was done similarly. To test if native Na+/K+-ATPase binds Src, the above experiments were repeated in the absence of Triton X-100. To make the Na+/K+-ATPase/Src complex, 2-5 μg of the purified Na+/K+ATPase was incubated with 4.5 U of Src (˜10 ng) in PBS in the absence of Triton X-100 at room temperature for 30 min. The complex was either used for the experiments directly as indicated or collected by centrifugation at 100,000×g for 30 min.

[4] = biological target: T2, purified pig kidney Na+/K+-ATPase (Sus scrofa, UniProt P05024); assay: ATPase activity of purified pig kidney Na+/K+-ATPase; format: biochemical
T2 construct: Na+/K+-ATPase was purified from pig kidney outer medulla using the Jorgensen method; from tissue; host or cells: pig kidney outer medulla
Source text: Src, without the first 85 amino acid residues, was purified from sf-9 cells as described (Ma et al., 2000) and used in the initial binding assays to ensure that Src binds to the Na+/K+-ATPase, but not the lipid composition in the purified Na+/K+-ATPase preparation. In subsequent experiments (e.g., phosphorylation and activity assays), purified recombinant full-length Src from Upstate Biotechnology was used. Na+/K+-ATPase was purified from pig kidney outer medulla using the Jorgensen method (Xie et al., 1996) and the preparations with specific activities between 1200 and 1400 μmol Pi/mg/h were used.
GST fusion proteins or His-tagged proteins were expressed in Escherichia coli BL21 and purified on glutathione beads or nickel column.

Src [5] = biological target: T3, Src (Sus scrofa, UniProt K7GM45); assay: Src pY418 in LLC-PK1 cells transiently transfected with YFP-tagged constructs; format: cell-based, pig; details: transient transfection 24 h
T3 construct: endogenous in cells; host or cells: LLC-PK1 (pig kidney)
Method: FIG. 22A. LLC-PK1 cells were transient-transfected with YFP-tagged ND1, ND, and CD3 for 24 h.
Cells were then lysed in RIPA buffer and probed for pY418. YFP were also transient-transfected into LLC-PK1 cells as control.

Src [6] = biological target: T4, Src (Gallus gallus, UniProt P00523); assay: In vitro binding assay of GST-Na+/K+-ATPase constructs with purified or His-tagged Src; design: species or system chicken; details: purified Src lacking first 84 amino acids, 200 ng
T4 construct: His; made in house; host or cells: sf-9 cells (Src without the first 85 residues); Escherichia coli BL21 (His-tagged constructs)
Method: (§5) The preparation of chicken c-Src lacking the SH4 domain and GST-Src mutants were done (Ma et al., 2000). GST-NT (amino acid residue 6-90) [SEQ ID NO: 51], GST-CD2 (amino acid residue 152-288) [SEQ ID NO 52], and GST-CD3 (amino acid residue 350-785) [SEQ ID NO: 53] expression vectors were constructed based on the sequence of pig kidney Na+/K+-ATPase α1 subunit (see FIG. 3A).
as §4

Src [7] = assay: as above; design: species or system chicken
Method: as §5, §4

Src [8] = biological target: T5, Src (Homo sapiens, UniProt P12931); assay: Src pY418 autophosphorylation / activity of purified recombinant Src; format: biochemical; details: recombinant Src (4.5 U) incubated 30 min, then 2 mM ATP/Mg2+ 5 min
T5 construct: purified recombinant full-length Src from Upstate Biotechnology was used; purchased Upstate Biotechnology (Lake Placid, N.Y.)
Method: as §3
The reaction was stopped by adding 5× loading buffer. pY418 was probed to measure Src activation.

Src [9] = biological target: T3, Src; assay: GST-CD3 pulldown of Src from LLC-PK1 cell lysates; format: binding, pig; details: 1 mg LLC-PK1 cell lysates
Method: FIG. 4C. A Western blot showing that Src was pulled down by GST-CD3 of Na+/K+-ATPase (Na/K) and H+/K+-ATPase (H/K), but not SERCA from 1 mg LLC-PK1 cell lysates.
as §1

purified Na+/K+-ATPase = biological target: T6, purified Na+/K+-ATPase (Sus scrofa, UniProt P05024); assay: In vitro GST pulldown binding assay with purified Na+/K+-ATPase; design: species or system pig; details: GST-tagged Src truncations and purified Na+/K+-ATPase
T6 construct: Na+/K+-ATPase was purified from pig kidney outer medulla using the Jorgensen method; from tissue; host or cells: pig kidney outer medulla
Method: as §4

Src and ERK1/2 = assay: Activation of Src and ERK1/2 in P-11, A4-11, PY-17 and AAC-19 cells (Western blot); format: cell-based, pig; details: for increase in SrcTyr(P)418: n=3
Method: FIGS. 18A and 18B. Cells were exposed to 100 nM ouabain for either 5 or 15 min, and the cell lysates (50 μg/lane) were analyzed by Western blot for active Src or active ERK1/2. Blots were probed first with anti-Tyr(P)^418-Src or anti-pERK antibody, then stripped, and reprobed for total Src or ERK1/2 to ensure equal loading.
FIGS. 18 C and 18D. Cells were treated with indicated concentrations of ouabain for 5 min, and total cell lysates were analyzed for Tyr(P)^418-Src and total Src or pERK1/2 and total ERK1/2 as in FIGS. 18A and 18B. A representative Western blot and combined quantitative data are shown. The quantitative data (relative ratio of pSrc/Src or pERK/ERK) from three independent experiments (mean±S.E.) were calculated relative to the control condition of P-11 cells. *, p<0.05 versus the respective control condition of each cell line. con, control.
as §2

CC(C)(C)n1nc(-c2ccc(Cl)cc2)c2c(N)ncnc21 [PP2]
block of ouabain-induced protein tyrosine phosphorylation (SYF and SYF+Src cells): able to block | increase in FAK Tyr(P)925 in knockdown cells (PY-17 cells): sensitive

Nc1ncnc2c1cnn2-c1ccccc1 [PP3]
block of ouabain-induced recruitment of Src to the Na+/K+-ATPase (LLC-PK1 cells [1]): failed to block

CN[C@@H]1[C@@H](O)[C@@H](O[C@@H]2[C@@H](O)[C@H](O[C@H]3O[C@H]([C@@H](C)O)[C@@H](O)[C@H](O)[C@H]3N)[C@@H](N)C[C@H]2N)OC[C@]1(C)O [Peptide G418, G418]
concentration required to kill the untransfected cells (LLC-PK1 cells [2]; untransfected cells): more than 3 mg/ml

CN(CC[C@H](N)CC(=O)N[C@H]1C=C[C@H](n2ccc(N)nc2=O)O[C@@H]1C(=O)O)C(=N)N [blasticidin]
sensitivity of knockdown cells (LLC-PK1 cells [2]; 15 μg/ml): sensitive to blasticidin

[O]=[V]([O-])([O-])[O-] [vanadate]
Src pY418 of Na+/K+-ATPase/Src complex ([3]; 10-100 μM vanadate): no effect on Src pY418 | inhibition of the ATPase activity ([4]; 100 μM vanadate): complete inhibition | inhibition of the ATPase activity ([4]; 10-100 μM vanadate): completely inhibited the ATPase activity

CD3: YFP-tagged cytosolic domain 3 of Na+/K+-ATPase α1
Src phosphorylation (pY418) in LLC-PK1 cells (Src [5]): decrease Src phosphorylation

GST-CD2: GST fusion of pig kidney Na+/K+-ATPase α1 amino acid residue 152-288
interaction with Src (Src [6]): interacted | interaction with His-tagged SH3SH2 domain of Src (Src [7]): interacted with the SH3SH2 domain | interaction with His-tagged kinase domain of Src (Src [7]): not the kinase domain

GST-CD3: GST fusion of pig kidney Na+/K+-ATPase α1 amino acid residue 350-785
Src pY418 (autophosphorylation at Tyr418) (Src [8]): dose-dependent inhibition | interaction with Src (Src [6]): interacted | interaction with His-tagged SH3SH2 domain of Src (Src [7]): not the SH3SH2 domain | interaction with His-tagged kinase domain of Src (Src [7]): interacted with the kinase domain | pulldown of Src from LLC-PK1 cell lysates (Src [9]): pulled down

GST-H+/K+-CD3: GST fusion of the CD3 from rat gastric H+/K+-ATPase
pulldown of Src from LLC-PK1 cell lysates (Src [9]): pulled down Src

LRLEVKLGQGCFGEVWMGTWNGTTRVAIKTLKPGTMSPEAFLQEAQVMKKLRHE [KD1]
activation of Na+/K+-ATPase-inhibited Src ([3]; competing the binding motif for Src): effective in activating the Na+/K+-ATPase-inhibited Src | binding to Na+/K+-ATPase (purified Na+/K+-ATPase): binds Na+/K+-ATPase

epidermal growth factor: epidermal growth factor
increase in SrcTyr(P)418 (Src and ERK1/2; P-11 cells): 2.5±0.3 fold | stimulation of ERK1/2 (Src and ERK1/2; PY-17 cells): able to stimulate ERK1/2 | increase in SrcTyr(P)418 (Src and ERK1/2; PY-17 cells): 1.7±0.2 fold

Source: patent publication US9663561B2, “Methods of treatment of cancer using SRC-modulating peptides” (The University of Toledo, priority 2006, dated 2017)
